Data as given in publication PMC12153265 (mBio, 2025).

Columns and labels:
CTPS1 [1] = molecular target: T1, CTPS1 (Homo sapiens, UniProt P17812); assay: Covalent labeling of FLAG-CTPS1 in 293T cells, in-gel fluorescence imaging; assay type: binding; settings: FLAG-CTPS1 expressing 293T cells, 2 h
T1 construct: expressed in transfected cells; host or cells: 293T cells expressing FLAG-CTPS1
T1 sequence (P17812 1-591): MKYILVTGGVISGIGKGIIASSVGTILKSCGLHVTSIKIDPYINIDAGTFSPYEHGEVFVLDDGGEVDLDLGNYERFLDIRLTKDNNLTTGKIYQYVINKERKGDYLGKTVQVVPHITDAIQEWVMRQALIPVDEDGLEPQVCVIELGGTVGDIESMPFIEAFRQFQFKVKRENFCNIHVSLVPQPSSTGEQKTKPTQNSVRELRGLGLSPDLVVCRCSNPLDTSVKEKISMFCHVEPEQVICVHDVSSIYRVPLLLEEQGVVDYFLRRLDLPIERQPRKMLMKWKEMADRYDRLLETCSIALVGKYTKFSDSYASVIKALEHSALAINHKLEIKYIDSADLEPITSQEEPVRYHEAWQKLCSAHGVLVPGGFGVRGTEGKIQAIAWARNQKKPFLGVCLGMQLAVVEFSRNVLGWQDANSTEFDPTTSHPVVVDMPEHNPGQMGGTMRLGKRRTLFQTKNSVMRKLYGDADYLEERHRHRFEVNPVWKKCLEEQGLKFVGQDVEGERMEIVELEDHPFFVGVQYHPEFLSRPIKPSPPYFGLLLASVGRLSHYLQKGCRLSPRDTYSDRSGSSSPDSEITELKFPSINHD

SARS-CoV-2 [2] = assay: SARS-CoV-2 replication in Caco-2 cells, viral titer in the medium by plaque assay; assay type: cell-based; settings: for antiviral activity in SARS-CoV-2 infection compared with compound 1 / IC50: Caco-2, MOI = 0.1, 72 h; for antiviral activity in SARS-CoV-2 infection compared with compound 1 / reduction of viral yield: plaque assay; for IC50: viral titer in medium by plaque assay, read-out: IC50, inhibition of SARS-CoV-2 replication; for reduction of viral yield: MOI = 0.1, 72 h
Method: (§1) NHBE (1.5 × 10^5 cells), Calu-3 (5 × 10^5 cells), or Caco-2 cells (2 × 10^5 cells) were seeded in one well of 12-well plates. Cells were washed with FBS-free medium before viral infection. SARS-CoV-2 was diluted in 250 µL (per well) medium and added to the above cells. Viral infection was incubated on a rocker for 45 min at 37°C. Cells were washed with fresh medium, and medium containing 10% FBS was added.
(§2) Vero E6-hACE2 cells were seeded in 6- or 12-well plates. When cell confluence reached 100%, cells were washed with FBS-free medium and infected with medium containing serially diluted SARS-CoV-2. After infection, the medium was removed, and overlay medium containing FBS-free 1× DMEM and 1% low-melting point agarose was added. At 72 h post-infection, cells were fixed with 4% paraformaldehyde (PFA) overnight and stained with 0.2% crystal violet. Plaques were counted on a lightbox.
(§3) Caco-2, NHBE, Calu-3, and Vero E6-hACE2 cells were pre-treated with compound 1, 6, or 10 and infected with SARS-CoV-2 (MOI = 0.1 for Caco-2, NHBE, and Calu-3; MOI = 0.001 for Vero E6-hACE2). Compounds were added daily during viral infection until the end of the experiments (72 h for Caco-2 and Calu-3, 48 h for NHBE, and 24 h for Vero E6-hACE2), with DMSO used as a control. Viral titer in the medium was determined by plaque assay. Cytotoxicity assay was performed for uninfected Caco-2, NHBE, Calu-3, and Vero E6-hACE2 cells with the same treatment schedule as that of viral replication assay. Cytotoxicity was determined with an XTT assay kit (Roche), according to the manufacturer’s instructions. The percentage of inhibition was normalized to DMSO control. IC50, IC90, and CC50 were calculated with GraphPad Prism software.

Caco-2 cells = assay: Cytotoxicity, XTT assay, uninfected Caco-2 cells; assay type: cell-based, human; settings: uninfected Caco-2, XTT assay, 72 h; read-out: CC50, cell viability
Method: as §3

SARS-CoV-2 [3] = assay: SARS-CoV-2 replication (plaque assay) and cytotoxicity (XTT) in Calu-3 cells; assay type: cell-based; settings: Calu-3, MOI = 0.1, 72 h
Method: as §3

IFN-β promoter = assay: IFN-β induction by Sendai virus, luciferase reporter assay in 293T cells; assay type: cell-based, human; settings: SeV infection; for IFN induction compared with compound 1, reporter assay: 293T cells
Method: (§4) HEK293T cells in 24-well plates (~50% cell density) were transfected with a reporter plasmid cocktail containing 50 ng luciferase reporter plasmid (ISRE-luc, IFN-β-luc, or NF-κB), 5 ng TK-renilla luciferase reporter (control vector), and the indicated expression plasmids by calcium phosphate precipitation. Whole cell lysates (WCLs) were prepared at 24–30 h post-transfection and used for dual luciferase assay according to the manufacturer’s instruction (Promega).

[4] = Cytotoxicity, XTT assay, uninfected Caco-2 cells; assay type: cell-based, human; settings: human, uninfected Caco-2 cells, uninfected Caco-2, XTT assay, read-out: CC50, cell viability
Method: as §3

SARS-CoV-2 [5] = assay: SARS-CoV-2 replication in NHBE cells, viral titer in the medium by plaque assay; assay type: cell-based; settings: Severe acute respiratory syndrome coronavirus 2, NHBE, 48 h
Method: as §1, §2
Caco-2, NHBE, Calu-3, and Vero E6-hACE2 cells were pre-treated with compound 1, 6, or 10 and infected with SARS-CoV-2 (MOI = 0.1 for Caco-2, NHBE, and Calu-3; MOI = 0.001 for Vero E6-hACE2). […] Viral titer in the medium was determined by plaque assay. […] Cytotoxicity was determined with an XTT assay kit (Roche), according to the manufacturer’s instructions. […] IC50, IC90, and CC50 were calculated with GraphPad Prism software.

[6] = Cytotoxicity, XTT assay, uninfected NHBE cells; assay type: cell-based; settings: human, read-out: CC50, cell viability
Method: as §3

CTPS1 [7] = molecular target: CTPS1 (Homo sapiens, UniProt P17812); assay: CTPS1 enzymatic activity assay (UTP to CTP conversion, mass spectrometry); assay type: biochemical; settings: read-out: inhibition of CTP synthesis compared with DMSO
SARS-CoV-2 [8] = assay: SARS-CoV-2 RNA abundance in infected Caco-2 cells, real-time PCR; assay type: cell-based; settings: MOI = 0.1, 72 h
NF-κB = NF-κB activation by Sendai virus, luciferase reporter assay in 293T cells; assay type: cell-based, human; settings: SeV infection
Method: as §4

IFNB1, ISG56, CCL5, Mx1 = assay: Antiviral gene expression in SARS-CoV-2-infected Caco-2 cells, real-time PCR; assay type: cell-based, human; settings: Caco-2, 2 µM and 6 µM, MOI = 0.1, 48 h
IFNB1 = assay: Antiviral gene expression in 293T cells infected with Sendai virus, real-time PCR
CTP synthesis = assay: Intracellular CTP/CDP synthesis, [amide-15N]glutamine tracing and mass spectrometry
SARS-CoV-2 [9] = assay: SARS-CoV-2 infection of K18-hACE2 transgenic mice; assay type: in vivo, mouse; settings: 50 mg/kg daily intraperitoneal, 3 dpi
Method: K18-hACE2 transgenic mice were intraperitoneally administered with compound 10 at a dose of 50 mg/kg and vehicle 1 day before infection with 1 × 10^4 PFU of SARS-CoV-2. Body weight and compound administration were monitored daily. Mice were humanely euthanized at 3 dpi, and the lung tissues were harvested for viral titration, real-time PCR, and pathological analysis.
K18-ACE2 transgenic mice were euthanized on day 3 after SARS-CoV-2 infection. Fresh lung pieces were fixed with 10% formalin for 24 h. The post-caval lobes of the […] were sent to the histology lab in USC of the School of Pharmacy Core Facilities for processing and hematoxylin and eosin (H&E) staining. In brief, tissues were dehydrated and embedded in paraffin. Paraffin-embedded tissue blocks were sectioned with 5 µm thickness. Sections were processed by H&E staining and imaged by ZEISS Axio Scope.A1 microscope (Zeiss) and analyzed by ZEISS ZEN Blue software.
Immunofluorescence staining was performed on the middle lobes of the […] fixed with 10% formalin. Tissues were embedded in optimal cutting temperature (OCT) compound and frozen immediately at −80°C. Subsequently, the frozen tissues were cut into 8 µm sections using a cryostat-microtome. Sections were blocked with 10% normal goat serum diluted in PBST for 1 h and incubated with primary antibodies diluted in 10% normal goat serum overnight at 4°C. After washing with PBST, sections were incubated with species-matched secondary antibodies for 30 min at room temperature. Then tissue sections were washed with PBST, mounted with VectaMount Mounting Medium (Vector Laboratories), and analyzed by a confocal microscope (Nikon).

SARS-CoV-2 [10] = assay: SARS-CoV-2 infection of AAV-hACE2-transduced C57BL/6 J mice; settings: 35 mg/kg daily intraperitoneal, 4 dpi

C#CCOc1cccc(NC(=O)c2cccc(NC(=O)CCl)c2)c1 [Compound 2]
covalent labeling of CTPS1 (CTPS1 [1]): covalently labeled CTPS1 in a dose-dependent manner

COc1ccccc1NC(=O)c1cccc(NC(=O)CCl)c1 [Compound 6]
antiviral activity in SARS-CoV-2 infection compared with compound 1 (SARS-CoV-2 [2]): more robust antiviral activity | IC50 (SARS-CoV-2 [2]): 140 nM | CC50 (Caco-2 cells): 2820 nM | CC50 value relative to IC50 value (SARS-CoV-2 [3]): IC50 values as high as their CC50 values | IFN induction compared with compound 1, reporter assay (IFN-β promoter): better effect on IFN induction than compound 1

COc1cccc(NC(=O)c2cccc(NC(=O)CCl)c2)c1 [Compound 1]
reduction of viral yield (SARS-CoV-2 [2]; Caco-2, 2 µM): ~ 10 fold | reduction of viral yield (SARS-CoV-2 [2]; Caco-2, 6 µM): ~50 fold | IC90 (SARS-CoV-2 [2]; Severe acute respiratory syndrome coronavirus 2, Caco-2, 72 h, read-out: IC90, inhibition of SARS-CoV-2 replication): 1560 nM | IC50 (SARS-CoV-2 [2]; Severe acute respiratory syndrome coronavirus 2): 170 nM | CC50 at 72 h [4]: 2420 nM | IC50 (SARS-CoV-2 [5]; read-out: IC50, inhibition of SARS-CoV-2 replication): 970 nM | IC90 (SARS-CoV-2 [5]; read-out: IC90, inhibition of SARS-CoV-2 replication): 8700 nM | CC50 at 48 h [6]: 3750 nM | inhibition at 10 µM (CTPS1 [7]): 55 to 83% | reduction of viral RNA abundance (Nsp1, N, E) (SARS-CoV-2 [8]; Caco-2, 2 µM): > 50% | reduction of viral RNA abundance (Nsp1, N, E) (SARS-CoV-2 [8]; Caco-2, 6 µM): ~ 75% | CC50 value relative to IC50 value (SARS-CoV-2 [3]): IC50 values as high as their CC50 values | IFN induction, luciferase reporter (IFN-β promoter; CTPS1-depleted 293T cells): failed to do so | IFN induction, luciferase reporter (IFN-β promoter; control 293T cells): elevated IFN induction | NF-κB activation, luciferase reporter (NF-κB): no effect | expression of antiviral genes (IFNB1, ISG56, CCL5, Mx1) (IFNB1, ISG56, CCL5, Mx1): elevated | IFNB1 expression (IFNB1; 293T cells infected with Sendai virus): increased IFNB1 expression in a dose-dependent manner | expression of IFNB1 and ISG56 inhibited by Nsp8 and ORF8 (IFNB1; 293T cells transfected with Nsp8 or ORF8, SeV infection, 6 h): significantly restored | intracellular concentration of [amide-15N]CTP and [amide-15N]CDP (CTP synthesis; Caco-2 cells infected with SARS-CoV-2): potently diminished | [amide-15N]CTP and [amide-15N]CDP (CTP synthesis; Caco-2 cells stably expressing ORF8): diminished

CCCCCNC(=O)c1cccc(NC(=O)CCl)c1 [Compound 10]
antiviral activity in SARS-CoV-2 infection compared with compound 1 (SARS-CoV-2 [2]): more robust antiviral activity | IC50 (SARS-CoV-2 [2]): 110 nM | CC50 (Caco-2 cells): 6170 nM | CC50 value relative to IC50 value (SARS-CoV-2 [3]): 10 fold | lung pathology, H&E staining (inflammatory infiltration) (SARS-CoV-2 [9]): weak and isolated infiltration of immune cells | viral N protein in the lung, immunofluorescence staining (SARS-CoV-2 [9]): lower expression of viral protein | immune gene expression in the lung (SARS-CoV-2 [9]; vs vehicle): elevated | viral RNA abundance in the lung (SARS-CoV-2 [9]; vs vehicle): reduced | viral titer in the lung (SARS-CoV-2 [9]; vs vehicle, plaque assay): reduced | IFN induction compared with compound 1, reporter assay (IFN-β promoter): better effect on IFN induction than compound 1 | viral titer in the lung (SARS-CoV-2 [10]; plaque assay): decreased | expression of cellular antiviral genes (Ifnb1, Isg15, Isg56, Mx1) in the lung (SARS-CoV-2 [10]; real-time PCR): elevated
